Reference: ChEMBL document CHEMBL1138639, “Carbonic anhydrase inhibitors: inhibition of human cytosolic isozyme II and mitochondrial isozyme V with a series of benzene sulfonamide derivatives” (Bioorg Med Chem Lett, 2004)

Assays:
[1] = target: Carbonic anhydrase 5A, mitochondrial (Homo sapiens, UniProt P35218)
Carbonic anhydrase 2 = Carbonic anhydrase 2 (Homo sapiens, UniProt P00918)

Sequence of Carbonic anhydrase 5A, mitochondrial (P35218 whole entry): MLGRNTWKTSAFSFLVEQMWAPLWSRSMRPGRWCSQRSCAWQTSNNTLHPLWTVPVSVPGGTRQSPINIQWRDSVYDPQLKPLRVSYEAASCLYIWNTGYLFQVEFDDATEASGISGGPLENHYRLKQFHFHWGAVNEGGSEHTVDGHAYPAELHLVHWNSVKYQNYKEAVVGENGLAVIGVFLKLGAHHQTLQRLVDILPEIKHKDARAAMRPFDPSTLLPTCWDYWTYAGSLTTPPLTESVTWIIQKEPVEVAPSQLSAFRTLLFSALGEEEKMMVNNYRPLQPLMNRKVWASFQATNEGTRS

SMILES | IC50 [1] [µM] | IC50 (Carbonic anhydrase 2) [µM]
COC(=O)c1ccccc1S(N)(=O)=O | 53.2 | 
NNc1ccccc1S(N)(=O)=O | 9.6 | 
NS(=O)(=O)c1nc2ccc([N+](=O)[O-])cc2s1 | 44.9 | 0.25
N/C(S)=N/Nc1ccc(S(N)(=O)=O)cc1 | 63.7 | 0.29
Nc1ccc(S(N)(=O)=O)cc1I | 9.4 | 
NS(=O)(=O)c1ccc([N+](=O)[O-])cc1 | 4.2 | 0.4
N#CSc1ccc(S(N)(=O)=O)cc1 | 8.6 | 3.6
NS(=O)(=O)c1cccc([N+](=O)[O-])c1 | 0.78 | 0.41
Nc1nccc(Nc2ccc(S(N)(=O)=O)cc2)n1 | 29.9 | 
Nc1ccccc1S(N)(=O)=O | 15.3 | 
Nc1ccc(S(N)(=O)=O)cc1Br | 7.6 | 
NS(=O)(=O)c1ccc(CCO)cc1 | 17 | 
Nc1ccc(S(N)(=O)=O)cc1F | 9.3 | 
NS(=O)(=O)c1ccc(CO)cc1 | 9.3 | 
NCCc1ccc(S(N)(=O)=O)cc1 | 42.4 | 
Nc1ccc(S(N)(=O)=O)cc1Cl | 7.4 | 
NNc1ccc(S(N)(=O)=O)cc1 | 7.7 | 
NS(=O)(=O)c1ccc(C(=O)O)cc1 [CARZENIDE] | 2.65 | 
NCc1ccc(S(N)(=O)=O)cc1 [MAFENIDE] | 27.6 | 
Cc1ccc(S(N)(=O)=O)cc1 [P-TOLUENESULFONAMIDE] | 4.7 | 
[H]/N=C(/N)NS(=O)(=O)c1ccc(N)cc1 [SULFAGUANIDINE] | > 100 | > 100
Nc1ccc(S(N)(=O)=O)cc1 [SULFANILAMIDE] | 32 | 
